According to patent publication US4247559A, “N-substituted maleimides in liquid concentrates” (Abbott Laboratories, priority 1979, dated 1981):

What was measured:
Format in all cases: cell-based
[1] = test system: Aerobacter aerogenes, Pseudomonoas Sp., Bacillus subtilus and Bacillus megaterium; experiment: antibacterial test in nutrient broth tubes, presence or absence of turbidity; design: unit not given here; conditions: 48 hours at 37° C., subcultured and incubated 24 hours longer, challenge 1×10^6 colony-forming units each
Description: (§1) The new compounds are dissolved in DMF at a concentration of 50 mg/ml. and diluted with water to the appropriate concentration to be added to a nutrient broth in test tubes. The challenge mixture contains 1×10^6 colony-forming units each of Aerobacter aerogenes, Pseudomonoas Sp., Bacillus subtilus and Bacillus megaterium. Following inoculation, the tubes are incubated 48 hours at 37° C., subcultured to fresh nutrient broth and incubated 24 hours longer. The results are recorded as presence or absence of turbidity, turbidity indicating growth of the inoculum due to inactivity of the biocide at the concentration used in the broth.

[2] = test system: A. niger and P. funiculosum; experiment: antifungal test on agar plates, visual inspection of growth; design: unit not given here; conditions: agar plates, 10,000 units each, 30° C. for two weeks
Description: In a related test, the above biocide solutions are added to agar plates at various concentrations and the plates are then inoculated with 1 ml. of a broth containing 10,000 units each of A. niger and P. funiculosum. The plates are then incubated at 30° C. for two weeks, and growth of the fungi is visually inspected to establish the minimum inhibitory concentration (MIC).

[3] = test system: most common industrial fungi and bacteria; experiment: biocidal activity (summary statements on bacteria and fungi); conditions: conclusion from the table, in words
Description: as §1, with “broth. In a related test, the above biocide solutions are added to agar plates at various concentrations and the plates are then inoculated with 1 ml. of a broth containing 10,000 units each of A. niger and P. funiculosum. The plates are then incubated at 30° C. for two weeks, and growth of the fungi is visually inspected to establish the minimum inhibitory concentration (MIC).” for “broth.”

SMILES | Antibacterial MIC [1] | Antifungal MIC [2] | biocidal activity [3]
O=C1C=CC(=O)N1c1ccc(S(=O)(=O)CCl)cc1 [R=p-CH2 Cl, N-[p-(chloromethylsulfonyl)phenyl]maleimide] | 1000 | 1000 | 
O=C1C=CC(=O)N1c1ccc(S(=O)(=O)CI)cc1 [R= p-CH2 I] |  | 100 | 
O=C1C=CC(=O)N1c1ccc(S(=O)(=O)C(Cl)Cl)cc1 [R= p-CHCl2, N-[p-(dichloromethylsulfonyl)phenyl]maleimide] | 1000 | 1000 | 
O=C1C=CC(=O)N1c1ccc(S(=O)(=O)C(I)I)cc1 [R= p-CHI2, N-[p-(diiodomethylsulfonyl)phenyl]maleimide] | 1000 | 1000 | 
O=C1C=CC(=O)N1c1ccc(S(=O)(=O)C(Cl)(Cl)Cl)cc1 [R= CCL3, reference compound] | inactive | inactive | ineffective
